Reference: patent publication US20200216416A1, “QUINOLINE COMPOUNDS AS INHIBITORS OF TAM AND MET KINASES” (Array BioPharma Inc., priority 2019, published 2020)
Where two headings read alike, the source gives them in different places.

Biological target: T1, MDR1 (P-gp) (Homo sapiens, UniProt P08183)
T1 construct: expressed in transfected cells; host or cells: LLC-PK1
Assay: MDR1 LLC-PK1 permeability assay
Type: in vitro ADME
Conditions: pig, MDR1 transfected LLC-PK1 cells; for Papp at 2 h, 1 μM: permeability coefficient (Papp)
Description: MDR1 transfected LLC-PK1 cells were cultured and plated according to manufacturer's recommendations with the exception that the passage media contained only 2% fetal bovine serum to extend passage time out to seven days.
Both positive and negative controls were used to assess functionality of P-gp efflux in the assay. Stock solutions for assay controls and the test article were prepared in DMSO for final test concentrations of 10 and 1 μM, respectively. Final organic concentration in the assay was 1%. All dosing solutions contained 10 μM lucifer yellow to monitor LLC-PK1 cell monolayer integrity.
For the apical to basolateral determination (A to B), 75 μL of the test article in transport buffer were added to the apical side of the individual transwells and 250 μL of basolateral media, without compound or lucifer yellow, were added to each well. For the basolateral to apical determination (B to A), 250 μL of test article in transport buffer were added to each well and 75 μL transport buffer, without compound or lucifer yellow, were added to each transwell. All tests were performed in triplicate, and each compound was tested for both apical to basolateral and basolateral to apical transport. The plates were incubated for 2 hours on a Lab-Line Instruments Titer Orbital Shaker (VWR, West Chester, Pa.) at 50 rpm and 37° C. with 5% CO2. All culture plates were removed from the incubator and 50 μL of media were removed from the apical and basolateral portion of each well and added to 150 μL of 1 μM labetalol in 2:1 acetonitrile (acetonitrile): H2O, v/v.
The plates were read using a Molecular Devices (Sunnyvale, Calif.) Gemini Fluorometer to evaluate the lucifer yellow concentrations at excitation/emission wavelengths of 425/535 nm. These values were accepted when found to be below 2% for apical to basolateral and 5% basolateral to apical flux across the MDR1-transfected LLC-PK1-transfected cell monolayers. The plates were sealed and the contents of each well analyzed by LC-MS/MS. The compound concentrations were determined from the ratio of the peak areas of the compound to the internal standard (labetalol) in comparison to the dosing solution.
The LC-MS/MS system was comprised of an HTS-PAL autosampler (Leap Technologies, Carrboro, N.C.), an HP1200 HPLC (Agilent, Palo Alto, Calif.), and a MDS Sciex 4000 Q Trap system (Applied Biosystems, Foster City, Calif.). […] The total run time, including re-equilibration, for a single injection was 1.2 minutes. Mass spectrometric detection of the analytes was accomplished using the ion spray positive mode. Analyte responses were measured by multiple reaction monitoring (MRM) of transitions unique to each compound (the protonated precursor ion and selected product ions for each test article and m/z 329 to m/z 162 for labetalol, the internal standard).
The permeability coefficient (Papp) is calculated from the following equation: […]
where Cd, V, t and C0 are the detected concentration (μM), the volume on the dosing side (mL), the incubation time (s) and the initial dosing concentration (μM), respectively. The calculations for Papp were made for each replicate and then averaged. In this assay, a compound is defined has having high permeability if the permeability is greater than 8×10^−6 cm/sec, a compound is defined has having medium permeability if the permeability is from 2×10^−6 cm/sec to 8×10^−6 cm/sec, and a compound is defined has having low permeability if the permeability is less than 2×10^−6 cm/sec.
An efflux ratio was calculated from the mean apical to basolateral (A-B) Papp data and basolateral to apical (B-A) Papp data:
Efflux ratio=Papp(B−A)/Papp(A−B)

[1] = LLC-PK1, efflux ratio = Papp(B-A)/Papp(A-B), read-out: MDR1 Pe Ratio
[2] = LLC-PK1, Papp(B−A)/Papp(A−B), test article 1 μM, 2 hours, 37° C., read-out: Efflux ratio

T1 sequence (P08183 whole entry): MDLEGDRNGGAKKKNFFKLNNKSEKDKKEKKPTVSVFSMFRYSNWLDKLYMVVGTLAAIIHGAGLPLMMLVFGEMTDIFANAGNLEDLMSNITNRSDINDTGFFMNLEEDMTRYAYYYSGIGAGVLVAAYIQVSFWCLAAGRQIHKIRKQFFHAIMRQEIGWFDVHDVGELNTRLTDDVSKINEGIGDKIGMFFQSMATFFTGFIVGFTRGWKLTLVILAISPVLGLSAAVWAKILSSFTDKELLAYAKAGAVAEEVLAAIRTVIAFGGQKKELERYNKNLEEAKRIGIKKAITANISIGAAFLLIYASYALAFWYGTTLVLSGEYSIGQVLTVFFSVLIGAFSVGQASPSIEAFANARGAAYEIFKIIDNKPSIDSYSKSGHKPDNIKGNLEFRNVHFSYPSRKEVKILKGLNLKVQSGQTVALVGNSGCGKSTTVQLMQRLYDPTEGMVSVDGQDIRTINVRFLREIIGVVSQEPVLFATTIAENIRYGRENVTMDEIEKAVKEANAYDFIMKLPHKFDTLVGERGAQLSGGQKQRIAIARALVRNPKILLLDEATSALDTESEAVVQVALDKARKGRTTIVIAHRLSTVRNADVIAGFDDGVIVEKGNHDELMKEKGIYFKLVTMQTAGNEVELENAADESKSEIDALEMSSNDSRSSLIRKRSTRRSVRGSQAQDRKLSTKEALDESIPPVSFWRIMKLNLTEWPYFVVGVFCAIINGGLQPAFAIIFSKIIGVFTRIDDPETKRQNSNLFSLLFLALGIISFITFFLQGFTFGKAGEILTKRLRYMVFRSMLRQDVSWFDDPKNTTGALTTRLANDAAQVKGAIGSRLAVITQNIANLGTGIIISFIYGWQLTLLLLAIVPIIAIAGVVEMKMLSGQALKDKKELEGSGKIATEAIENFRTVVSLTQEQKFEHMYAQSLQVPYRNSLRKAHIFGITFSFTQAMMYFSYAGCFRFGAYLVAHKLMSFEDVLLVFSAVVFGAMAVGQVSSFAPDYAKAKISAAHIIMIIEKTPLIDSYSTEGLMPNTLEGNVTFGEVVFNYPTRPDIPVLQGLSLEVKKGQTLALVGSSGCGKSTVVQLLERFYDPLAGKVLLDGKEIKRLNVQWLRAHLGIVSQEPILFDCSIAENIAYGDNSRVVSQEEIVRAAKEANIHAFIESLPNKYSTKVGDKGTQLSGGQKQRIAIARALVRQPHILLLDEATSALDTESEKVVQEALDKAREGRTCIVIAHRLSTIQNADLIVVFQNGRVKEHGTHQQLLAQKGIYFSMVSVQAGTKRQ

SMILES	efflux ratio at 2 h, 1 μM [1]	Papp at 2 h, 1 μM	efflux ratio at 2 h, 1 μM [2]
COc1cc2nccc(Oc3ccc(NC(=O)c4cn(CC(=O)N(C)C)cc(-c5ccc(F)cc5)c4=O)nc3)c2cc1OC [Example 23, N-(5-((6,7-dimethoxyquinolin-4yl)oxy)pyridin-2-yl)-1-(2-(dimethylamino)-2-oxoethyl)-5-(4-fluorophenyl)-4-oxo-1,4-dihydropyridine-3-carboxamide]	105	60 nm/s	
COc1cc2nccc(Oc3ccc(NC(=O)c4cn(CC(=O)N(C)C)cc(-c5ccc(F)c(F)c5)c4=O)nc3)c2cc1OC [Example 24, 5-(3,4-difluorophenyl)-N-(5-((6,7-dimethoxyquinolin-4-yl)oxy)pyridin-2-yl)-1-(2-(dimethylamino)-2-oxoethyl)-4-oxo-1,4-dihydropyridine-3-carboxamide]	210	95 nm/s	
COc1cc2nccc(Oc3ccc(NC(=O)c4cn(CC(=O)N(C)C)cc(-c5ccc(Cl)cc5)c4=O)nc3)c2cc1OC [Example 25]	136	64 nm/s	
COc1cc2nccc(Oc3ccc(NC(=O)c4c[nH]cc(-c5ccc(F)cc5)c4=O)nc3)c2cc1OC [Example 26, N-(5-((6,7-dimethoxyquinolin-4yl)oxy)pyridin-2-yl)-5-(4-fluorophenyl)-4-oxo-1,4-dihydropyridine-3-carboxamide]	44	30 nm/s	
COc1cc2nccc(Oc3ccc(NC(=O)c4cn(C(C)C)c(C)c(-c5ccc(F)cc5)c4=O)nc3)c2cc1OC [Example 27, N-(5-((6,7-dimethoxyquinolin-4yl)oxy)pyridin-2-yl)-5-(4-fluorophenyl)-1-isopropyl-6-methyl-4-oxo-1,4-dihydropyridine-3-carboxamide]	5.5	160 nm/s	
COc1cc2nccc(Oc3ccc(NC(=O)c4cn(C(C)C)c(C)c(-c5ccc(F)c(F)c5)c4=O)nc3)c2cc1OC [Example 28, 5-(3,4-difluorophenyl)-N-(5-((6,7-dimethoxyquinolin-4yl)oxy)pyridin-2-yl)-1-isopropyl-6-methyl-4-oxo-1,4-dihydropyridine-3-carboxamide]	2.8	150 nm/s	3.5
CCc1c(-c2ccc(F)cc2)c(=O)c(C(=O)Nc2ccc(Oc3ccnc4cc(OC)c(OC)cc34)cn2)cn1C(C)C [Example 29, N-(5-((6,7-dimethoxyquinolin-4yl)oxy)pyridin-2-yl)-6-ethyl-5-(4-fluorophenyl)-1-isopropyl-4-oxo-1,4-dihydropyridine-3-carboxamide]	3.6	100 nm/s	
COc1ccc(-c2cn(C(C)C)cc(C(=O)Nc3ccc(Oc4ccnc5cc(OC)c(OC)cc45)cn3)c2=O)cc1 [Example 30, N-(5-((6,7-dimethoxyquinolin-4yl)oxy)pyridin-2-yl)-1-isopropyl-5-(4-methoxyphenyl)-4-oxo-1,4-dihydropyridine-3-carboxamide]	3.1	70 nm/s	3.5
COc1ccc(-c2cn(C(C)C)cc(C(=O)Nc3ccc(Oc4ccnc5cc(OC)c(OC)cc45)cn3)c2=O)c(F)c1 [Example 31, N-(5-((6,7-dimethoxyquinolin-4yl)oxy)pyridin-2-yl)-5-(2-fluoro-4-methoxyphenyl)-1-isopropyl-4-oxo-1,4-dihydropyridine-3-carboxamide]	2	110 nm/s	3.5
COc1cc2nccc(Oc3ccc(NC(=O)c4cn(C(C)C)cc(-c5ccc(F)cc5OC)c4=O)nc3)c2cc1OC [Example 32, N-(5-((6,7-dimethoxyquinolin-4yl)oxy)pyridin-2-yl)-5-(4-fluoro-2-methoxyphenyl)-1-isopropyl-4-oxo-1,4-dihydropyridine-3-carboxamide]	7.1	140 nm/s	
COc1ccc2nccc(Oc3ccc(NC(=O)c4cn(C(C)C)c(C)c(-c5ccc(F)cc5)c4=O)nc3)c2c1 [Example 33, 5-(4-fluorophenyl)-1-isopropyl-N-(5-((6-methoxyquinolin-4-yl)oxy)pyridin-2-yl)-6-methyl-4-oxo-1,4-dihydropyridine-3-carboxamide]	2	100 nm/s	3.5
COc1cc2nccc(Oc3ccc(NC(=O)c4cn(CCC(C)C)cc(-c5ccc(F)cc5)c4=O)nc3)c2cc1OC [Example 34, N-(5-((6,7-dimethoxyquinolin-4yl)oxy)pyridin-2-yl)-5-(4-fluorophenyl)-1-isopentyl-4-oxo-1,4-dihydropyridine-3-carboxamide]	5.3	< 10 nm/s	

Results, then the compound that gave them:

efflux ratio at 2 h, 1 μM [1]	Papp at 2 h, 1 μM	efflux ratio at 2 h, 1 μM [2]	SMILES
4.3	10 nm/s		COc1cc2nccc(Oc3ccc(NC(=O)c4cn(CCC(C)C)cc(-c5ccc(F)cc5F)c4=O)nc3)c2cc1OC [Example 36, 5-(2,4-difluorophenyl)-N-(5-((6,7-dimethoxyquinolin-4yl)oxy)pyridin-2-yl)-1-isopentyl-4-oxo-1,4-dihydropyridine-3-carboxamide]
13	< 10 nm/s		COc1cc2nccc(Oc3ccc(NC(=O)c4cn(CCC(C)C)cc(-c5ccc(Cl)cc5)c4=O)nc3)c2cc1OC [Example 37]
	250 nm/s		COc1cc2nccc(Oc3ccc(NC(=O)c4cn(C(C)C)c(C(C)C)c(-c5ccc(F)cc5)c4=O)nc3)c2cc1OC [Example 38, N-(5-((6,7-dimethoxyquinolin-4yl)oxy)pyridin-2-yl)-5-(4-fluorophenyl)-1,6-diisopropyl-4-oxo-1,4-dihydropyridine-3-carboxamide]
0.9	70 nm/s	3.5	CCn1cc(C(=O)Nc2ccc(Oc3ccnc4ccc(OC)cc34)cn2)c(=O)c(-c2ccc(F)cc2)c1 [Example 39, 1-ethyl-5-(4-fluorophenyl)-N-(5-((6-methoxyquinolin-4-yl)oxy)pyridin-2-yl)-4-oxo-1,4-dihydropyridine-3-carboxamide]
2.5	70 nm/s	3.5	COc1ccc2nccc(Oc3ccc(NC(=O)c4cn(C)cc(-c5ccc(F)cc5)c4=O)nc3)c2c1 [Example 41, 5-(4-fluorophenyl)-N-(5-((6-methoxyquinolin-4yl)oxy)pyridin-2-yl)-1-methyl-4-oxo-1,4-dihydropyridine-3-carboxamide]
12			COc1cc2nccc(Oc3ccc(NC(=O)c4cn(CCN(C)C)cc(-c5ccc(Cl)cc5)c4=O)nc3)c2cc1OC [Example 42]
13			COc1cc2nccc(Oc3ccc(NC(=O)c4cn(CCN(C)C)cc(-c5ccc(F)c(F)c5)c4=O)nc3)c2cc1OC [Example 43, 5-(3,4-difluorophenyl)-N-(5-((6,7-dimethoxyquinolin-4-yl)oxy)pyridin-2-yl)-1-]
11	20 nm/s		COc1cc2nccc(Oc3ccc(NC(=O)c4cn(CCN(C)C)cc(-c5ccc(F)cc5F)c4=O)nc3)c2cc1OC [Example 44, 5-(2,4-difluorophenyl)-N-(5-((6,7-dimethoxyquinolin-4-yl)oxy)pyridin-2-yl)-1-(2-(dimethylamino)ethyl)-4-oxo-1,4-dihydropyridine-3-carboxamide]
16	50 nm/s		COc1cc2nccc(Oc3ccc(NC(=O)c4cn(C)c(C(C)C)c(-c5ccc(F)cc5)c4=O)nc3)c2cc1OC [Example 45, N-(5-((6,7-dimethoxyquinolin-4-yl)oxy)pyridin-2-yl)-5-(4-fluorophenyl)-6-isopropyl-1-methyl-4-oxo-1,4-dihydropyridine-3-carboxamide]
13	20 nm/s		COc1cc2nccc(Oc3ccc(NC(=O)c4cn(CCN(C)C)cc(-c5ccc(F)cc5)c4=O)nc3)c2cc1OC [Example 46]
